Source: patent US20090304661A1, “Method And Composition For Proctecting Neuronal Tissue From Damage Induced By Elevated Glutamate Levels” (Yeda Research And Development Co. Ltd. at the Weizmann …, priority 2006, published 2009)

How the values were obtained:
[1] = target: E. coli GOT (GenBank Accession No. D90731.1) (Escherichia coli, UniProt P00509); settings: cited from earlier work
[2] = system: traumatic brain injury (TBI); test: Neurological severity score (NSS) after traumatic brain injury; format: in vivo, rat; settings: for spontaneous partial recovery of rats submitted to TBI: summary statement
Experimental: FIGS. 3A-C are graphs showing the effects of stress on the spontaneous recovery from traumatic brain injury. FIG. 3A illustrates TBI protocol and times of neurological severity score (NSS) assessment and removal of blood samples (asterisks) FIG. 4B is a histogram showing the effects of propranolol (10 mg/kg i.p) on the spontaneous recovery of rats submitted to TBI. Propranolol was injected 60 min before the infliction of TBI. The neurological severity scores were measured at 1 and 24 hours following TBI. The scores shown on the ordinate correspond to NSS averages+/−standard error of the mean. Control (n=33); propranolol (n=8). […] Propranolol was injected at a dose of 10 mg/kg i.p. 60 min before the infliction of TBI.
Animal anesthesia and well being—Experiments were conducted according to the recommendations of the Declarations of Helsinki and Tokyo and to the Guidelines for the Use of Experimental Animals of the European Community. The experiments were approved by the Animal Care Committees of Ben-Gurion University of the Negev and of the Weizmann Institute. Spontaneously breathing male Sprague Dawley rats weighing 200-300 g were anesthetized with a mixture of isoflurane (initial inspired concentration 2%) in 100% oxygen (1l/min). The rectal temperature was maintained at 37° C. using a heating pad and anesthesia was considered as sufficient for surgery when tail reflex was abolished. Catherization of the tail vein was carried out with a BD Neoflon 24 g catheter for allowing fluid infusion. Catherization of the tail artery was performed to allow blood sampling and determination of blood pressure and heart rate.

[3] = system: Glu in rat brain striatum; test: Dual-probe microdialysis of Glu in rat brain striatum; format: in vivo
Experimental: Glu (1M) was continuously perfused at a rate of 2 μl/min from the delivery probe while perfusing artificial CSF at the same rate of 2 μl/min through the recovery probe for the entire duration of the experiments. […] Microdialysis of 1M Glu along with an intravenous Glu injection performed at t=100 min for 30 min (30 μmoles/min/100 g).
Artificial CSF was perfused at a rate of 2 μl/min through the two probes for a duration of 60 min. A 1 M solution of glutamate was then perfused through the delivery probe, at a rate of 2 μl/min for the entire duration of the experiment while perfusing artificial CSF at the same rate of 2 μl/min through a recovery probe, located at 1 mm from the delivery probe. Aliqouots of 40 μl were collected from the recovery probe every 20 min. The recovered Glu was measured using a spectrofluorometric assay (see below).
A 20 μl aliquot from microdialysate was added to 480 μl HG buffer containing 15 U of Glu dehydrogenase in 0.2 mM NAD, 0.3M glycine, 0.25 M hydrazine hydrate adjusted to pH 8.6 with 1N H2SO4. […] A Glu standard curve was established with concentrations ranging from 0-6 μM. All determinations were done at least in duplicates. The results are expressed as mean.+−SD.
The dual-probe brain microdialysis was used and perfused through the delivery probe inserted in the striatum of anesthetized rats a Glu solution while simultaneously perfusing artificial CSF through a recovery probe, located at 1 mm distance.

[4] = Blood osmolality and Na content before and after treatment; format: in vivo, rat; settings: OxAc group
Experimental: This beneficial effect was not observed in the other groups for which the treatment includes the intravenous administration of Glu (data not shown). Since OxAc could act on brain edema as an osmotic agent, both the blood osmolality and Na content were measured before and after the 30 min-long treatments with OxAc or saline. There was no change in the saline group (303±3.5 mOsm (pre-treatment) vs 299±3 mOsm (post-treatment); Na: 140±1 meq/l vs 141±0.8 meq/l) but a very significant increase in the OxAc-group: (301±5 mOsm vs 338±8 mOsm; Na: 139±1 meq/l vs 164±3.4 meq/l). The hypernatriema and hyperosmolarity in the OxAc-treated rats can be accounted by the fact that OxAc is administered together with 2 Na equivalents. To determine that the NSS improvement and edema reduction in the OxAc-treated rats were not due to an osmotic “therapy”, rats were submitted after TBI to a hypertonic (3% NaCl) saline treatment. As the respective NSS values obtained at 60 min and 24 h post TBI were 15.6±3.6 and 12.4±5.3 (n=7; p=0.16), it was concluded that the beneficial effects of OxAc are not the result of an osmotic therapy.

[5] = system: blood Glu levels; test: Blood Glu levels following traumatic brain injury; format: in vivo, rat
Experimental: FIGS. 3A-C are graphs showing the effects of stress on the spontaneous recovery from traumatic brain injury. FIG. 3A illustrates TBI protocol and times of neurological severity score (NSS) assessment and removal of blood samples (asterisks) […] is a histogram showing the effects of propranolol (10 mg/kg i.p) on the spontaneous recovery of rats submitted to TBI. Propranolol was injected 60 min before the infliction of TBI. The neurological severity scores were measured at 1 and 24 hours following TBI. The scores shown on the ordinate correspond to NSS averages+/−standard error of the mean. Control (n=33); propranolol (n=8). Bonferroni's multiple comparison tests: saline 1 h vs saline 24 h p<0.001; saline 1 h vs propranolol pretreatment p>0.05; saline 1 h vs propranolol post-TBI p<0.001. FIG. 3C is a graph showing the effects of propranolol on the blood Glu (rectangles) and glucose (triangles) levels of rats submitted to TBI (n=8). Propranolol was injected at a dose of 10 mg/kg i.p. 60 min before the infliction of TBI. Glu and glucose levels were measured at 1, 60, 120 and 150 min following TBI. Glu levels were normalized to the value at t=1 min.;
FIGS. 4A-C are graphs depicting the effects of a blood Glu scavenger and of Glu on the recovery from TBI. Rats were injected intravenously for a total duration of 30 min (as in FIG. 3A) either with saline (30 μl/min/100 g), OxAc (30 μmoles/min/100 g) or OxAc+Glu (30 μmoles/min/100 g each). Twenty four and forty eight hours later, rats were submitted to various tests to establish the NSS. The scores shown above each column correspond to NSS averages with bars indicating the standard error of the mean. FIG. 4A—The groups from left to right are as follows: control saline (n=33) at 1 hour and 24 h; OxAc (n=32); Glu (n=32); OxAc+Glu (n=17) at 24 h and 48 h; One way ANOVA and Bonferroni multiple comparison tests: At 24 h: saline versus OxAc: p<0.05; saline versus Glu: p<0.01; Glu versus OxAc: p<0.001; saline versus OxAc+Glu: p>0.05. […] Glu levels are expressed as the percent of the basal Glu levels measured before TBI. […] Paired t test: 0 versus 60 min saline p=5.10^−4; 0 versus 60 min OxAc p=0.10^−4; 60 min versus 75 min saline: p=0.59; 60 min versus 75 min OxAc: p=3.10^−3; 75 min versus 90 min saline: p=0.89; 75 min versus 90 min OxAc: p=2.10^−4; C: Time course of the recovery from TBI in saline (n=7) and OxAc-treated (n=7) rats as monitored by NSS values presented here as mean±standard deviation. […]
Glu spectrofluorometric assay—Glu concentration was measured using the fluorometric method of Graham and Aprison. […] After incubation for 30-45 min at room temperature, the fluorescence was measured at 460 nm with excitation at 350 nm. […] The results are expressed as mean.+−SD. […]

[6] = system: blood Glu levels; test: Blood Glu levels in rats after stress hormones, agonists and antagonists; format: in vivo, rat; settings: for effect on blood Glu levels: cortisol 25 mg/kg intraperitoneally, noradrenaline intravenously 30 min at 2 μg/100 g/min
Experimental: FIGS. 2A-B are line graphs showing the effects of stress hormones and stress on blood glutamate and glucose levels. A: Cortisol (25 mg/kg) was injected intraperitoneally (triangles). Noradrenaline was infused intravenously for 30 min at 2 μg/100 g/min and 1 ml/100 g (rectangles). Adrenaline was infused intravenously for 30 min at […] and 1 ml/100 g (diamonds). The data presented are normalized to the respective basal blood values and shown as mean±standard deviation (n=3). B: Effects of an intracranial insertion of a microdialysis probe (without any fluid perfusion) on blood Glu (diamonds) and glucose (rectangles) levels. The data presented are normalized to the respective basal blood values and shown as mean±standard deviation (n=4);
The rats NSS were measured after 24 and 48 h The results are presented as mean±standard deviation; and
FIG. 8 is a graph showing the effect of an alpha 1 agonist, phenylephrine on blood Glu levels. Phenylephrine was infused intravenously for 30 min into rats (n=4) at a rate 0.25 mg/0.5 ml/100 g/30 min and the levels of blood Glu were determined at time=0 and every subsequent 30 min until 120 min. The results are presented as mean±standard deviation.
Glu spectrofluorometric assay—Glu concentration was measured using the fluorometric method of Graham and Aprison. A 20 μl aliquot from microdialysate was added to 480 μl HG buffer containing 15 U of Glu dehydrogenase in 0.2 mM NAD, 0.3M glycine, 0.25 M hydrazine hydrate adjusted to pH 8.6 with 1N H2SO4. After incubation for 30-45 min at room temperature, the fluorescence was measured at 460 nm with excitation at 350 nm. A Glu standard curve was established with concentrations ranging from 0-6 μM. All determinations were done at least in duplicates. The results are expressed as mean.+−SD.
Determination of Blood/plasma Glu—Whole blood (200 μl aliquot) were deproteinized by adding an equal volume of ice-cold 1 M perchloric acid (PCA) and then centrifuging at 10000×g for 10 min at 4° C. The pellet was discarded and supernatant collected, adjusted to pH 7.2 with 2M K2CO3 and, if needed, stored at −80° C. for later analysis using the above-described assay.
The rats NSS were measured after 24 and 48 h.
Phenylephrine was infused intravenously for 30 min into rats (n=4) at a rate 0.25 mg/0.5 ml/100 g/30 min and the levels of blood Glu were determined at time=0 and every subsequent 30 min until 120 min.

[7] = system: blood glucose levels; test: Blood glucose levels following traumatic brain injury; format: in vivo, rat; settings: propranolol 10 mg/kg i.p. 60 min before TBI
Experimental: FIGS. 3A-C are graphs showing the effects of stress on the spontaneous recovery from traumatic brain injury. FIG. 3A illustrates TBI protocol and times of neurological severity score (NSS) assessment and removal of blood samples (asterisks) […] is a histogram showing the effects of propranolol (10 mg/kg i.p) on the spontaneous recovery of rats submitted to TBI. Propranolol was injected 60 min before the infliction of TBI. The neurological severity scores were measured at 1 and 24 hours following TBI. The scores shown on the ordinate correspond to NSS averages+/−standard error of the mean. Control (n=33); propranolol (n=8). […] Glu and glucose levels were measured at 1, 60, 120 and 150 min following TBI. […]
Animal anesthesia and well being—Experiments were conducted according to the recommendations of the Declarations of Helsinki and Tokyo and to the Guidelines for the Use of Experimental Animals of the European Community. […] Blood samples were analyzed for pH, pO2, pCO2, HCO3^−3. Glucose levels were measured with Accu-Chek sensor comfort. […] Following TBI, all rats were laid on their left side in order to recover from anesthesia and to check righting reflex and recovery time as part of the assessment of NSS which was evaluated 1 h after TBI (see below).

[8] = baseline before 30 min-long treatment

Sequence of E. coli GOT (GenBank Accession No. D90731.1) (P00509 whole entry): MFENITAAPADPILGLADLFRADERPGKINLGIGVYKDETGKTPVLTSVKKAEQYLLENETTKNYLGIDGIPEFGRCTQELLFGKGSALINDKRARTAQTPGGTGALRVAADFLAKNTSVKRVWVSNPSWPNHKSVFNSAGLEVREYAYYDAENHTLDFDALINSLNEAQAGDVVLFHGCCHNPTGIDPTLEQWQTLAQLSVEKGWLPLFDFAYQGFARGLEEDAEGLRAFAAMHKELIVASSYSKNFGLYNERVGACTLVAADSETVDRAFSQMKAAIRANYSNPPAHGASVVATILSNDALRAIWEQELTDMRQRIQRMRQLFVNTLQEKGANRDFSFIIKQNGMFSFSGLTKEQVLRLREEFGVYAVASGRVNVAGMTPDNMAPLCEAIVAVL

## O=C(O)CCC(=O)C(=O)O [2-ketoglutarate]
[1]
  affinity of E. coli GOT for the substance: about 0.2 mM

## N[C@@H](CCC(=O)O)C(=O)O [Glu, L-glutamic acid]
[1]
  affinity of E. coli GOT for the substance: about 8 mM
[2]; intravenous 30 min, 30 μmoles/min/100 g (each), after TBI
  recovery from TBI (NSS at 24 h and 48 h): recovered the least
[2]
  spontaneous partial recovery of rats submitted to TBI: prevented
[3]; 1M Glu perfused, intravenous Glu at t=100 min for 30 min, 30 μmoles/min/100 g
  amounts of Glu reaching the recovery probe: significantly more Glu reaches the recovery probe

## O=C(O)CC(=O)C(=O)O [OxAc, oxaloacetate]
[4]; after 30 min-long treatment
  blood Na content, post-treatment: 164±3.4 meq/l
  blood osmolality, post-treatment: 338±8 mOsm
[4]; [8]
  blood Na content, pre-treatment: 139±1 meq/l
  blood osmolality, pre-treatment: 301±5 mOsm
[5]; intravenous OxAc 30 μmoles/min/100 g, 60-90 min after TBI, relative to basal Glu before TBI
  blood Glu levels after TBI: 40%
[5]; stress- and OxAc-induced decreases
  duration of decrease of blood Glu after TBI: at least 90 min
[3]; 1M Glu perfused, intravenous OxAc at t=110 min for 30 min, 30 μmoles/min/100 g
  further reduction of the amounts of Glu reaching the recovery probe: up to 50 % of the peak value

## C[C@]12CCC(=O)C=C1CC[C@@H]1[C@@H]2[C@@H](O)C[C@@]2(C)[C@H]1CC[C@]2(O)C(=O)CO [cortisol]
[6]
  effect on blood Glu levels: neither cortisol nor noradrenaline affected blood Glu levels

## COCCc1ccc(OCC(O)CNC(C)C)cc1 (stereo not drawn) [metaprolol]
[6]; metaprolol 15 mg/kg, naive rats
  effect on the reduction of blood Glu levels: strong effect
[6]; metaprolol 15 mg/kg, naive rats, followed to 120 min
  reduction of in vivo rat blood glutamate: 40%

## NC[C@H](O)c1ccc(O)c(O)c1 [noradrenaline]
[6]
  effect on blood Glu levels: neither cortisol nor noradrenaline affected blood Glu levels

## CNC[C@H](O)c1cccc(O)c1 [phenylephrine]
[6]; injected intravenously at 0.1 mg/100 gr rat body-weight/30 min
  reduction of blood basal glutamate levels: 40%

## CC(C)NCC(O)COc1cccc2ccccc12 (stereo not drawn) [propranolol]
[2]; propranolol 10 mg/kg i.p. 1 hour before TBI
  spontaneous NSS improvement at 24 h: prevented the spontaneous NSS improvement
[2]; propranolol administration delayed by 60 min after TBI
  NSS improvement: caused the same NSS improvement as that found after saline treatment
[2]
  spontaneous partial recovery of rats submitted to TBI: prevented
[7]
  stress-induced changes of blood glucose levels: prevented for at least 150 min the stress-induced changes of blood Glu and glucose levels
[5]; propranolol 10 mg/kg i.p. 60 min before TBI
  stress-induced changes of blood Glu levels: prevented for at least 150 min the stress-induced changes of blood Glu and glucose levels
[5]; propranolol, rats submitted to TBI (FIGS. 3A-C)
  effect on blood glutamate levels: practically no effect
[3]; propranolol pretreatment, data not shown
  effect on Glu dual-probe microdialysis profile: did not affect
